For 1 compound, IC50 results are on record in paper PMC12434536, “Radiosynthesis and Preclinical Evaluation of a Carbon-11 Labeled Phosphodiesterase 7 Inhibitor for PET Neuroimaging” (ACS Medicinal Chemistry Letters, 2025).

For this data set, the system named is CYP2C9, CYP2C19, CYP2D6, CYP3A4. Kind of data set: CYP450 isoform inhibition profiling, other isoforms. Format: in vitro ADME. Conditions: all isoforms except CYP1A2; read-out: IC50 against the other CYP450 isoforms. The protocol:
page 5: protein-ligand complex were saved and were then loaded into Schrödinger Maestro to generate the ligand interaction plot. In vitro inhibitory assay to PDE7 of compound 27 and selectivity to other PDEs Functional activity of target compound 27 for inhibition of PDE7A activity and the selectivity over other PDE isozymes ([…], and 10A) were evaluated by Eurofins Panlabs Discovery Services and Reaction Biology Corp., respectively. Human recombinant enzymes were used for the assays. The inhibitory assays were performed and calculated in duplicate at 3 μM. If the inhibition percentage was less […] duplicate. CYP450 isoform metabolism and in vitro safety profiling The inhibitory constant of compound 26 toward cytochrome P450-dependent metabolic pathways was determined for individual CYP isoform (CYP1A2, CYP2C9, CYP2C19, CYP2D6, and CYP3A4). Reference inhibitors were included as positive controls. A 10 μM solution of compound 27 was used for initial screening. If the inhibition percentage was less than 50%, the experiment was stopped. […] gradient concentrations of compound 27 were used for IC 50 determination. The P450 reactions were detected at Ext/Em: 405 nm/460 nm (530 nm/605 nm for CYP2C9) in a S3 page 6: […] IC50 curves were plotted using a non-linear regression model with Graphpad Prism 6. […] Plasma and brain samples were quantified by LC-MS/MS method. […]

Turning to `COc1ccc(Cl)c2c1C1(CCCCC1)NC(=O)N2` [Compound 27], the IC50 at 80 min was ≥ 10 µM.
